Assay results as given in US7989457B2 (Eli Lilly and Company, priority 2004, dated 2011).

Target: cloned human glucagon receptor (Homo sapiens, UniProt P47871)
Test: Glucagon Receptor (hGlucR) Binding Assay
Procedure: This plasmid DNA was transfected into 293 HEK cells and selec ted with 200 ug/mL Hygromycin.
Crude plasma membranes are prepared using cells from suspension culture. The cells are lysed on ice in hypotonic buffer containing 25 mM Tris HCL, pH 7.5, 1 mM MgCl2, DNAsel, 20 u/mL, and Roche Complete Inhibitors-without EDTA. The cell suspension is homogenized with a glass dounce homogenizer using a Teflon pestle for 25 strokes. The homogenate is centrifuged at 4° C. at 1800×g for 15 mins. The supernate is collected and the pellet is resuspended in hypotonic buffer and rehomogenized. The mixture is centrifuged at 1800×g for 15 mins. The second supernate is combined with the first supernate. The combined supernates are recentrifuged at 1800×g for 15 mins to clarify. The clarified supernate is transferred to high speed tubes and centrifuged at 25000×g for 30 minutes at 4° C. The membrane pellet is resuspended in homogenization buffer and stored as frozen aliquots at −80° C. freezer until needed.
The specific activity is 2200 Ci/mmol.
The binding buffer contains 25 mM Hepes, pH 7.4, 2.5 mM CaCl2, 1 mM MgCl2, 0.1% fatty acid free BSA, (ICN), 0.003% tween-20, and Roche Complete Inhibitors without EDTA. […] Test compounds are dissolved in DMSO and serially diluted in DMSO. […] Plates are read with a MicroBeta after 14 hours of settling time at room temp. […]

Chain of cloned human glucagon receptor (P47871 26-477): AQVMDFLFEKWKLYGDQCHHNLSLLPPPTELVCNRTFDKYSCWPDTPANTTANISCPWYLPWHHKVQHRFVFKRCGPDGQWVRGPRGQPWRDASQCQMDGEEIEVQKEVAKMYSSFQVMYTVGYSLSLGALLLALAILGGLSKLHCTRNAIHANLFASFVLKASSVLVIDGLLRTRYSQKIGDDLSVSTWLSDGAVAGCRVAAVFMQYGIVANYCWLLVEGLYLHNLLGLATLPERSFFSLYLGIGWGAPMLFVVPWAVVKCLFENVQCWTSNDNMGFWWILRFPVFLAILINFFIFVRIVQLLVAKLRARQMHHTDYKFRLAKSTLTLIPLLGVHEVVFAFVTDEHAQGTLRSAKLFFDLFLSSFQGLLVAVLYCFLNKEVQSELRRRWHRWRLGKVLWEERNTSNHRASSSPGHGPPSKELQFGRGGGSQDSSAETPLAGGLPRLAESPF

Ki [nM]	Structure (SMILES)
951	CCC(COc1ccc(C(=O)NCCC(=O)O)cc1)c1ccc(-c2ccc(C(F)(F)F)cc2)cc1 (racemic)
801	CC(Oc1ccc(C(=O)NCCC(=O)O)cc1)c1ccc(-c2ccc(C(F)(F)F)cc2)nc1 (racemic)
